Assay results as given in patent US20240165244A1 (Prelude Therapeutics Incorporated, priority 2022, published 2024).

Experiments:
SMARCA2 = molecular target: T1, SMARCA2 (Homo sapiens, UniProt P51531); assay: SMARCA2 HiBiT degradation assay in HeLa cells; format: cell-based; conditions: 18 hours, highest concentration 10 μM
T1 construct: SMARCA2-HiBiT knock-in Hela monoclonal cell (CS302366); host or cells: HeLa monoclonal cells with heterozygous HiBiT knock-in at the endogenous SMARCA2 locus
Outline: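 HeLa cells carrying a heterozygous C-terminal HiBiT knock-in on SMARCA2 were seeded at 2500 cells/well. They were treated with 3-fold dilution series, top concentration 10 μM, for 18 h at 37 °C. Remaining SMARCA2-HiBiT was measured by Nano-Glo HiBiT lytic luminescence after 30-60 min at RT, followed by curve fitting.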

SMARCA4 = molecular target: T2, SMARCA4 (Homo sapiens, UniProt P51532); assay: SMARCA4 HiBiT degradation assay in HeLa cells; format: cell-based; conditions: 18 hours, highest concentration 10 μM
T2 construct: SMARCA4-HiBiT knock-in Hela monoclonal cell (CS3023226); host or cells: HeLa monoclonal cells with heterozygous HiBiT knock-in at the endogenous SMARCA4 locus
Outline: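 HeLa monoclonal cells with HiBiT knocked into SMARCA4 were seeded at 2500 cells/well, dosed with compound and incubated 18 hours at 37° C. HiBiT signal reported remaining SMARCA4 protein, and values came from curve fitting.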

T1 sequence (P51531 whole entry): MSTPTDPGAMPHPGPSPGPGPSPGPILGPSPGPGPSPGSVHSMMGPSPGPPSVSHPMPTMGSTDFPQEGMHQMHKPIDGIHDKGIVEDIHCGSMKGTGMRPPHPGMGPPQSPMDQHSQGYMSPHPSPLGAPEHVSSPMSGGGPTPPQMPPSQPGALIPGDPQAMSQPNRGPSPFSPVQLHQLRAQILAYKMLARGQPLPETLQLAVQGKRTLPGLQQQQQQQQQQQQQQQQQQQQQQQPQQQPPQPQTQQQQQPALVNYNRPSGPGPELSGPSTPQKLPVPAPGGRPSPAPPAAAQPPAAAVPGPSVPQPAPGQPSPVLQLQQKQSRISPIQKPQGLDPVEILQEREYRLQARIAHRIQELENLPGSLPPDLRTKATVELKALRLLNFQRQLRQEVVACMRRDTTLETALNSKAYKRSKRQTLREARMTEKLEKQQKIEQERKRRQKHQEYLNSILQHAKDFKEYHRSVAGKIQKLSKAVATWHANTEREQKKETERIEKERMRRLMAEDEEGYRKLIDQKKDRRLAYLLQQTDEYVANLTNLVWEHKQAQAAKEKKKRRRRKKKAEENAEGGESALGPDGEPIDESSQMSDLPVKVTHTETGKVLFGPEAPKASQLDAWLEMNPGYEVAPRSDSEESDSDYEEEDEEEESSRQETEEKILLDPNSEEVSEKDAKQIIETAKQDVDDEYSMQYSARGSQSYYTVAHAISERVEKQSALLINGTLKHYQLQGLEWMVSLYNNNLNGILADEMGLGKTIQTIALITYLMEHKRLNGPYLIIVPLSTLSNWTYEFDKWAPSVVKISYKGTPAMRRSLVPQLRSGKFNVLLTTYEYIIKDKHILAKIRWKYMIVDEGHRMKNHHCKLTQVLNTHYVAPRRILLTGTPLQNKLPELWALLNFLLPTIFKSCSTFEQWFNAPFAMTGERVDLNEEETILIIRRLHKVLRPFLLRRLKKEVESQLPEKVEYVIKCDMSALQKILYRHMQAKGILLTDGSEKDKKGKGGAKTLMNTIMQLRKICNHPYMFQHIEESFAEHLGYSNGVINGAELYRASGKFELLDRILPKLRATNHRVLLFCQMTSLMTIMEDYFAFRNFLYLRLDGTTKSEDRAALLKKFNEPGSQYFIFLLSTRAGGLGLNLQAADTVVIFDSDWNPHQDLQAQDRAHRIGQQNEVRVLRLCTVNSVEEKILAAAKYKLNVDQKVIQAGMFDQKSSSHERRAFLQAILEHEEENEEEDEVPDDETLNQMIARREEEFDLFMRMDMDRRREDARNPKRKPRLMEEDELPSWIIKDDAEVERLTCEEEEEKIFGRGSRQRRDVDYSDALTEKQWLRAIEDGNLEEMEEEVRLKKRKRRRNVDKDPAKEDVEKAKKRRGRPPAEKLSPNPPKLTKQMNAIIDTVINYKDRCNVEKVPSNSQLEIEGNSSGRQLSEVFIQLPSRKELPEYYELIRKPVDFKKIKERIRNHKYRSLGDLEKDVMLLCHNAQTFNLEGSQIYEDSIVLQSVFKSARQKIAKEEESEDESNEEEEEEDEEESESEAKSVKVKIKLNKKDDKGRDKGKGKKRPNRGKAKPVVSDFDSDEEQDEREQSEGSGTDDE
T2 sequence (P51532 whole entry): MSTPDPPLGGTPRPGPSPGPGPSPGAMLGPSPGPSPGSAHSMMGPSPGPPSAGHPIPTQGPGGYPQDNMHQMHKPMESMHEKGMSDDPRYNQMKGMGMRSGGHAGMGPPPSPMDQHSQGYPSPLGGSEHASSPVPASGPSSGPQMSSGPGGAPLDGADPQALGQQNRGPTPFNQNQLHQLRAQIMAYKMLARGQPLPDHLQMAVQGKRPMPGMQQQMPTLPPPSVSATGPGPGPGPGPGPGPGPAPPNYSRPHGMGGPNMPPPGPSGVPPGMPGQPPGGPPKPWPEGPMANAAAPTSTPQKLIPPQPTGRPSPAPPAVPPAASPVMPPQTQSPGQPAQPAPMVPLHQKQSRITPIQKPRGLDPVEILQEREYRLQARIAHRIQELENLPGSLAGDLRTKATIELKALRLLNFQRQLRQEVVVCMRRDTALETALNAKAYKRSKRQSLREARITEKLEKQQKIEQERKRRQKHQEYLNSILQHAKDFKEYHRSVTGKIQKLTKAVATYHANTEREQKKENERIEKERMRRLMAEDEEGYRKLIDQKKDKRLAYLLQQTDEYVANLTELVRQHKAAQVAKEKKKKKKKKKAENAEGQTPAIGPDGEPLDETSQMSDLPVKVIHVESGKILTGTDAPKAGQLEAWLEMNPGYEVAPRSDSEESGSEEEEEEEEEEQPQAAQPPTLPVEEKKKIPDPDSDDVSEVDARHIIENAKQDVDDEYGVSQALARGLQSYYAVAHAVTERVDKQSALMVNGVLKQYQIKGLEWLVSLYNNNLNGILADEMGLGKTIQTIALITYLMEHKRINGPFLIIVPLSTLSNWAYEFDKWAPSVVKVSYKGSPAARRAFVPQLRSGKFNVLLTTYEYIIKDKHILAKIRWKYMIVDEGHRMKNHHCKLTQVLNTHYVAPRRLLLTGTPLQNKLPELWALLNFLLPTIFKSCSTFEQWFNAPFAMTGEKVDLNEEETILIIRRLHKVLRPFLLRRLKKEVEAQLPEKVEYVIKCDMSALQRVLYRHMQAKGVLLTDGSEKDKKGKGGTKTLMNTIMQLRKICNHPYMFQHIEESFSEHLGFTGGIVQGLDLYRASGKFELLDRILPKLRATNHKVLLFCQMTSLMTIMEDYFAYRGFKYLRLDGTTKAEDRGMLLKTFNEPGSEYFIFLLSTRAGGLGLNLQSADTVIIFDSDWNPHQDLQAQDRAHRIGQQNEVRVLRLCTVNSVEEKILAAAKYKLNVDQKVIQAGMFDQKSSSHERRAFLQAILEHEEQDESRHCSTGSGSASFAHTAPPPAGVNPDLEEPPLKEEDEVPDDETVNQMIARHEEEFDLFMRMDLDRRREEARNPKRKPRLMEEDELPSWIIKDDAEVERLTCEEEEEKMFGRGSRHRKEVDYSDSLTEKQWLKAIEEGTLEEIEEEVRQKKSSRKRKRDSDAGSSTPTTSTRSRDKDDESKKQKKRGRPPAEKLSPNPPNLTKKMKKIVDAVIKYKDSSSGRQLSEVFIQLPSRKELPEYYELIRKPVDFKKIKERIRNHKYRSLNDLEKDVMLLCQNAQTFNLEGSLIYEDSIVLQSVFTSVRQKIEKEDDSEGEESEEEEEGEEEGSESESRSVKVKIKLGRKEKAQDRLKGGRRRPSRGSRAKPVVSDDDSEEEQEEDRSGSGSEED

Row | Structure (SMILES) | DC50 (SMARCA2) [nM] | Dmax (SMARCA2) [%] | DC50 (SMARCA4) [nM] | Dmax (SMARCA4) [%]
1 | O=C1CCC(N2Cc3ccc(N4CCN(Cc5cnc(O[C@H]6CN7c8cc(-c9cccc(F)c9O)nnc8NC[C@]7(C(F)F)C6)cn5)CC4)cc3C2=O)C(=O)N1 (stereo partly drawn) [Example 52, 3-(6-(4-((5-(((6aS,8R)-6a-(difluoromethyl)-2-(3-fluoro-2-hydroxyphenyl)-5,6,6a,7,8,9-hexahydropyrrolo[1′,2′:4,5]pyrazino[2,3-c]pyridazin-8-yl)oxy)pyrazin-2-yl)methyl)piperazin-1-yl)1-oxoisoindolin-2-yl)piperidine-2,6-dione] | < 100 | > 75 | > 1000 | < 50
2 | Cc1cc(CN2CCN(c3ccc4c(c3)C(=O)N(C3CCC(=O)NC3=O)C4)CC2)cnc1O[C@@H]1C[C@@H]2CNc3nnc(-c4cc(F)cc(F)c4O)cc3N2C1 (stereo partly drawn) [Example 31, 3-(6-(4-((6-(((6aR,8R)-2-(3,5-difluoro-2-hydroxyphenyl)-5,6,6a,7,8,9-hexahydropyrrolo[1′,2′:4,5]pyrazino[2,3-c]pyridazin-8-yl)oxy)-5-methylpyridin-3-yl)methyl)piperazin-1-yl)-1-oxoisoindolin-2-yl)piperidine-2,6-dione] | < 100 | > 75 | < 100 | > 75
3 | COc1cc(CN2CCN(c3ccc4c(c3)C(=O)N(C3CCC(=O)NC3=O)C4)CC2)cnc1O[C@H]1CN2c3cc(-c4cccc(F)c4O)nnc3NC[C@]2(C(F)F)C1 (stereo partly drawn) [Example 53, 3-(6-(4-((6-(((6aS,8R)-6a-(difluoromethyl)-2-(3-fluoro-2-hydroxyphenyl)-5,6,6a,7,8,9-hexahydropyrrolo[1′,2′:4,5]pyrazino[2,3-c]pyridazin-8-yl)oxy)-5-methoxypyridin-3-yl)methyl)piperazin-1-yl)-1-oxoisoindolin-2-yl)piperidine-2,6-dione] | < 100 | > 75 | < 100 | > 75
4 | CC[C@@]12CNc3nnc(-c4cccc(F)c4O)cc3N1C[C@H](Oc1ncc(CN3CCC(c4ccc5c(c4)C(=O)N([C@H]4CCC(=O)NC4=O)C5)CC3)c(C)n1)C2 [Example 105, (S)-3-(6-(1-((2-(((6aR,8R)-6a-ethyl-2-(3-fluoro-2-hydroxyphenyl)-5,6,6a, 7,8,9-hexahydropyrrolo[1′,2′:4,5]pyrazino[2,3-c]pyridazin-8-yl)oxy)-4-methylpyrimidin-5-yl)methyl)piperidin-4-yl)-1-oxoisoindolin-2-yl)piperidine-2,6-dione] | < 100 | > 75 | 100 to 1000 | < 50
5 | CC[C@@]12CNc3nnc(-c4cccc(F)c4O)cc3N1C[C@H](Oc1cc(C)c(CN3CCN(c4ccc5c(c4)C(=O)N([C@H]4CCC(=O)NC4=O)C5)CC3)cn1)C2 [Example 56, 3-(6-(4-((6-(((6aR,8R)-6a-Ethyl-2-(3-fluoro-2-hydroxyphenyl)-5,6,6a,7,8,9-hexahydropyrrolo[1′,2′:4,5]pyrazino[2,3-c]pyridazin-8-yl)oxy)-4-methylpyridin-3-yl)methyl)piperazin-1-yl)-1-oxoisoindolin-2-yl)piperidine-2,6-dione] | < 100 | > 75 | < 100 | 50 to 75
6 | COc1cc(O[C@@H]2C[C@@H]3CNc4nnc(-c5cc(F)cc(F)c5O)cc4N3C2)ccc1CN1CCN(c2ccc3c(c2)C(=O)N(C2CCC(=O)NC2=O)C3)CC1 (stereo partly drawn) [Example 12, 3-(6-(4-(4-(((6aR,8R)-2-(3,5-difluoro-2-hydroxyphenyl)-5,6,6a,7,8,9-hexahydropyrrolo[1′,2′:4,5]pyrazino[2,3-c]pyridazin-8-yl)oxy)-2-methoxybenzyl)piperazin-1-yl)-1-oxoisoindolin-2-yl)piperidine-2,6-dione] | < 100 | > 75 | < 100 | > 75
7 | C[C@]12CNc3nnc(-c4cccc(F)c4O)cc3N1C[C@H](Oc1cc(C#N)c(CN3CCN(c4ccc5c(c4)C(=O)N([C@H]4CCC(=O)NC4=O)C5)CC3)cn1)C2 [Example 76, 5-((4-(2-((S)-2,6-dioxopiperidin-3-yl)-3-oxoisoindolin-5-yl)piperazin-1-yl)methyl)-2-(((6aS,8R)-2-(3-fluoro-2-hydroxyphenyl)-6a-methyl-5,6,6a,7,8,9-hexahydropyrrolo[1′,2′:4,5]pyrazino[2,3-c]pyridazin-8-yl)oxy)isonicotinonitrile] | < 100 | > 75 | < 100 | > 75
8 | CC[C@]12CNc3nnc(-c4cccc(C)c4O)cc3N1C[C@H](Oc1nc(C)c(CN3CCC(c4ccc5c(c4)C(=O)N([C@H]4CCC(=O)NC4=O)C5)CC3)c(C)n1)C2 [Example 96, (S)-3-(6-(1-((2-(((6aS,8R)-6a-ethyl-2-(2-hydroxy-3-methylphenyl)-5,6,6a,7,8,9-hexahydropyrrolo[1′,2′:4,5]pyrazino[2,3-c]pyridazin-8-yl)oxy)-4,6-dimethylpyrimidin-5-yl)methyl)piperidin-4-yl)-1-oxoisoindolin-2-yl)piperidine-2,6-dione] | < 100 | > 75 | 100 to 1000 | < 50
9 | CC(C)c1cc(CN2CCN(c3ccc4c(c3)C(=O)N(C3CCC(=O)NC3=O)C4)CC2)ccc1O[C@@H]1C[C@@H]2CNc3nnc(-c4cc(F)cc(F)c4O)cc3N2C1 (stereo partly drawn) [Example 14, 3-(6-(4-(4-(((6aR,8R)-2-(3,5-difluoro-2-hydroxyphenyl)-5,6,6a,7,8,9-hexahydropyrrolo[1′,2′:4,5]pyrazino[2,3-c]pyridazin-8-yl)oxy)-3-isopropylbenzyl)piperazin-1-yl)-1-oxoisoindolin-2-yl)piperidine-2,6-dione] | < 100 | > 75 | < 100 | > 75
10 | Cc1cc(O[C@H]2CN3c4cc(-c5cccc(F)c5O)nnc4NC[C@@]3(C)C2)cnc1CN1CCN(c2ccc3c(c2)C(=O)N([C@H]2CCC(=O)NC2=O)C3)CC1 [Example 81, (S)-3-(6-(4-((5-(((6aR,8R)-2-(3-fluoro-2-hydroxyphenyl)-6a-methyl-5,6,6a,7,8,9-hexahydropyrrolo[1′,2′:4,5]pyrazino[2,3-c]pyridazin-8-yl)oxy)-3-methylpyridin-2-yl)methyl)piperazin-1-yl)-1-oxoisoindolin-2-yl)piperidine-2,6-dione] | < 100 | > 75 | 100 to 1000 | < 50
11 | O=C1CCC(N2Cc3ccc(N4CCC(Cn5cc(O[C@@H]6C[C@@H]7CNc8nnc(-c9cc(F)cc(F)c9O)cc8N7C6)cn5)CC4)cc3C2=O)C(=O)N1 (stereo partly drawn) [Example 39, 3-(6-(4-((4-(((6aR,8R)-2-(3,5-difluoro-2-hydroxyphenyl)-5,6,6a,7,8,9-hexahydropyrrolo[1′,2′:4,5]pyrazino[2,3-c]pyridazin-8-yl)oxy)-1H-pyrazol-1-yl)methyl)piperidin-1-yl)-1-oxoisoindolin-2-yl)piperidine-2,6-dione] | > 1000 | – | > 1000 | –
12 | O=C1CCC(N2Cc3ccc(N4CCN(Cc5ccc(O[C@@H]6C[C@@H]7CNc8nnc(-c9cc(F)cc(F)c9O)cc8N7C6)c(F)c5)CC4)cc3C2=O)C(=O)N1 (stereo partly drawn) [Example 4, 3-(6-(4-(4-(((6aR,8R)-2-(3,5-difluoro-2-hydroxyphenyl)-5,6,6a,7,8,9-hexahydropyrrolo[1′,2′:4,5]pyrazino[2,3-c]pyridazin-8-yl)oxy)-3-fluorobenzyl)piperazin-1-yl)-1-oxoisoindolin-2-yl)piperidine-2,6-dione] | < 100 | > 75 | < 100 | > 75
